# Read-outs that look alike come from different tables or passages of the source.
# What was measured:
# [1] = Stability of cannabinoid and Vitamin E components of Beverage 2 (AB Red) stored at 8° C. and 21-25° C., LCMSMS over 570 days; settings: for Chemical stability over the entire period (result in words): AB Red
# Method: The LCMSMS was calibrated for 0-50 ng/ml cannabinoids with the same resin material used in the preparation of the concentrates. At each time period, 100 μml of beverage was diluted with 10 ml of methanol and injected into the LCMSMS for analysis.
# [2] = assay type: physicochemical; settings: for Stability in Powder Concentrate (content by LCMSMS): stored at room temperature (21-25° C.)
# Method: At each time period, 0.05 g of powder was dissolved in 10 ml-15 of ethanol, diluted to fall within the analytical range, and injected into the LCMSMS for analysis.
smiles,measurement,setting,value
"CCCCCc1cc(O)c2c(c1)OC(C)(C)[C@@H]1CCC(C)=C[C@@H]21 [D9 THC, delta-9-tetrahydrocannabinol, reference compound]",Stability of Cannabinoids in AB Red,"[1]; 8° C., 0 days",12.9 µg/mL
same,Stability of Cannabinoids in AB Red,"[1]; 8° C., 1 days",13.0 µg/mL
same,Stability of Cannabinoids in AB Red,"[1]; 8° C., 2 days",13.0 µg/mL
same,Stability of Cannabinoids in AB Red,"[1]; 8° C., 3 days",12.7 µg/mL
same,Stability of Cannabinoids in AB Red,"[1]; 8° C., 5 days",13.0 µg/mL
same,Stability of Cannabinoids in AB Red,"[1]; 8° C., 8 days",12.6 µg/mL
same,Stability of Cannabinoids in AB Red,"[1]; 8° C., 9 days",12.7 µg/mL
same,Stability of Cannabinoids in AB Red,"[1]; 8° C., 10 days",12.8 µg/mL
same,Stability of Cannabinoids in AB Red,"[1]; 8° C., 11 days",12.8 µg/mL
same,Stability of Cannabinoids in AB Red,"[1]; 8° C., 12 days",12.9 µg/mL
same,Stability of Cannabinoids in AB Red,"[1]; 8° C., 15 days",12.9 µg/mL
same,Stability of Cannabinoids in AB Red,"[1]; 8° C., 16 days",12.7 µg/mL
same,Stability of Cannabinoids in AB Red,"[1]; 8° C., 17 days",12.6 µg/mL
same,Stability of Cannabinoids in AB Red,"[1]; 8° C., 18 days",12.8 µg/mL
same,Stability of Cannabinoids in AB Red,"[1]; 8° C., 19 days",12.7 µg/mL
same,Stability of Cannabinoids in AB Red,"[1]; 8° C., 22 days",12.7 µg/mL
same,Stability of Cannabinoids in AB Red,"[1]; 8° C., 23 days",12.9 µg/mL
same,Stability of Cannabinoids in AB Red,"[1]; 8° C., 24 days",12.9 µg/mL
same,Stability of Cannabinoids in AB Red,"[1]; 8° C., 25 days",12.9 µg/mL
same,Stability of Cannabinoids in AB Red,"[1]; 8° C., 26 days",12.7 µg/mL
same,Stability of Cannabinoids in AB Red,"[1]; 8° C., 29 days",12.7 µg/mL
same,Stability of Cannabinoids in AB Red,"[1]; 8° C., 30 days",12.9 µg/mL
same,Stability of Cannabinoids in AB Red,"[1]; 8° C., 60 days",12.5 µg/mL
same,Stability of Cannabinoids in AB Red,"[1]; 8° C., 90 days",13.0 µg/mL
same,Stability of Cannabinoids in AB Red,"[1]; 8° C., 120 days",12.4 µg/mL
same,Stability of Cannabinoids in AB Red,"[1]; 8° C., 150 days",12.8 µg/mL
same,Stability of Cannabinoids in AB Red,"[1]; 8° C., 180 days",12.6 µg/mL
same,Stability of Cannabinoids in AB Red,"[1]; 8° C., 210 days",12.3 µg/mL
same,Stability of Cannabinoids in AB Red,"[1]; 8° C., 240 days",12.4 µg/mL
same,Stability of Cannabinoids in AB Red,"[1]; 8° C., 270 days",12.6 µg/mL
same,Stability of Cannabinoids in AB Red,"[1]; 8° C., 300 days",12.4 µg/mL
same,Stability of Cannabinoids in AB Red,"[1]; 8° C., 330 days",12.7 µg/mL
same,Stability of Cannabinoids in AB Red,"[1]; 8° C., 390 days",12.4 µg/mL
same,Stability of Cannabinoids in AB Red,"[1]; 8° C., 420 days",12.4 µg/mL
same,Stability of Cannabinoids in AB Red,"[1]; 8° C., 450 days",12.4 µg/mL
same,Stability of Cannabinoids in AB Red,"[1]; 8° C., 480 days",12.2 µg/mL
same,Stability of Cannabinoids in AB Red,"[1]; 8° C., 510 days",12.0 µg/mL
same,Stability of Cannabinoids in AB Red,"[1]; 8° C., 540 days",11.9 µg/mL
same,Stability of Cannabinoids in AB Red,"[1]; 8° C., 570 days",11.8 µg/mL
same,Stability of Cannabinoids in AB Red,"[1]; 21-25° C., 0 days",12.9 µg/mL
same,Stability of Cannabinoids in AB Red,"[1]; 21-25° C., 1 days",13.0 µg/mL
same,Stability of Cannabinoids in AB Red,"[1]; 21-25° C., 2 days",13.0 µg/mL
same,Stability of Cannabinoids in AB Red,"[1]; 21-25° C., 3 days",12.6 µg/mL
same,Stability of Cannabinoids in AB Red,"[1]; 21-25° C., 5 days",12.4 µg/mL
same,Stability of Cannabinoids in AB Red,"[1]; 21-25° C., 8 days",12.7 µg/mL
same,Stability of Cannabinoids in AB Red,"[1]; 21-25° C., 9 days",12.8 µg/mL
same,Stability of Cannabinoids in AB Red,"[1]; 21-25° C., 10 days",12.5 µg/mL
same,Stability of Cannabinoids in AB Red,"[1]; 21-25° C., 11 days",12.9 µg/mL
same,Stability of Cannabinoids in AB Red,"[1]; 21-25° C., 12 days",13.0 µg/mL
same,Stability of Cannabinoids in AB Red,"[1]; 21-25° C., 15 days",12.7 µg/mL
same,Stability of Cannabinoids in AB Red,"[1]; 21-25° C., 16 days",12.4 µg/mL
same,Stability of Cannabinoids in AB Red,"[1]; 21-25° C., 17 days",12.9 µg/mL
same,Stability of Cannabinoids in AB Red,"[1]; 21-25° C., 18 days",12.8 µg/mL
same,Stability of Cannabinoids in AB Red,"[1]; 21-25° C., 19 days",12.8 µg/mL
same,Stability of Cannabinoids in AB Red,"[1]; 21-25° C., 22 days",12.9 µg/mL
same,Stability of Cannabinoids in AB Red,"[1]; 21-25° C., 23 days",12.9 µg/mL
same,Stability of Cannabinoids in AB Red,"[1]; 21-25° C., 24 days",12.5 µg/mL
same,Stability of Cannabinoids in AB Red,"[1]; 21-25° C., 25 days",12.5 µg/mL
same,Stability of Cannabinoids in AB Red,"[1]; 21-25° C., 26 days",12.4 µg/mL
same,Stability of Cannabinoids in AB Red,"[1]; 21-25° C., 29 days",12.7 µg/mL
same,Stability of Cannabinoids in AB Red,"[1]; 21-25° C., 30 days",12.4 µg/mL
same,Stability of Cannabinoids in AB Red,"[1]; 21-25° C., 60 days",12.2 µg/mL
same,Stability of Cannabinoids in AB Red,"[1]; 21-25° C., 90 days",12.8 µg/mL
same,Stability of Cannabinoids in AB Red,"[1]; 21-25° C., 120 days",12.4 µg/mL
same,Stability of Cannabinoids in AB Red,"[1]; 21-25° C., 150 days",12.4 µg/mL
same,Stability of Cannabinoids in AB Red,"[1]; 21-25° C., 180 days",12.8 µg/mL
same,Stability of Cannabinoids in AB Red,"[1]; 21-25° C., 210 days",12.4 µg/mL
same,Stability of Cannabinoids in AB Red,"[1]; 21-25° C., 240 days",12.5 µg/mL
same,Stability of Cannabinoids in AB Red,"[1]; 21-25° C., 270 days",12.5 µg/mL
same,Stability of Cannabinoids in AB Red,"[1]; 21-25° C., 300 days",12.4 µg/mL
same,Stability of Cannabinoids in AB Red,"[1]; 21-25° C., 330 days",12.1 µg/mL
same,Stability of Cannabinoids in AB Red,"[1]; 21-25° C., 390 days",12.1 µg/mL
same,Stability of Cannabinoids in AB Red,"[1]; 21-25° C., 420 days",12.2 µg/mL
same,Stability of Cannabinoids in AB Red,"[1]; 21-25° C., 450 days",12.2 µg/mL
same,Stability of Cannabinoids in AB Red,"[1]; 21-25° C., 480 days",11.8 µg/mL
same,Stability of Cannabinoids in AB Red,"[1]; 21-25° C., 510 days",12.3 µg/mL
same,Stability of Cannabinoids in AB Red,"[1]; 21-25° C., 540 days",12.2 µg/mL
same,Stability of Cannabinoids in AB Red,"[1]; 21-25° C., 570 days",11.8 µg/mL
same,Chemical stability over the entire period (result in words),"[1]; stored at 8° C., 570 days",high degree of stability
same,Chemical stability over the entire period (result in words),"[1]; stored at 21-25° C., 570 days",high degree of stability
same,Chemical stability over the entire period (result in words),"[2]; powder concentrate, room temperature (21-25° C.), 570 days",no significant degradation
same,Stability in Powder Concentrate (content by LCMSMS),[2]; day 0,2.55 mg/g powder
same,Stability in Powder Concentrate (content by LCMSMS),[2]; day 1,2.55 mg/g powder
same,Stability in Powder Concentrate (content by LCMSMS),[2]; day 2,2.46 mg/g powder
same,Stability in Powder Concentrate (content by LCMSMS),[2]; day 3,2.63 mg/g powder
same,Stability in Powder Concentrate (content by LCMSMS),[2]; day 5,2.66 mg/g powder
same,Stability in Powder Concentrate (content by LCMSMS),[2]; day 8,2.49 mg/g powder
same,Stability in Powder Concentrate (content by LCMSMS),[2]; day 9,2.49 mg/g powder
same,Stability in Powder Concentrate (content by LCMSMS),[2]; day 10,2.60 mg/g powder
same,Stability in Powder Concentrate (content by LCMSMS),[2]; day 11,2.58 mg/g powder
same,Stability in Powder Concentrate (content by LCMSMS),[2]; day 12,2.65 mg/g powder
same,Stability in Powder Concentrate (content by LCMSMS),[2]; day 15,2.49 mg/g powder
same,Stability in Powder Concentrate (content by LCMSMS),[2]; day 16,2.54 mg/g powder
same,Stability in Powder Concentrate (content by LCMSMS),[2]; day 17,2.54 mg/g powder
same,Stability in Powder Concentrate (content by LCMSMS),[2]; day 18,2.55 mg/g powder
same,Stability in Powder Concentrate (content by LCMSMS),[2]; day 19,2.51 mg/g powder
same,Stability in Powder Concentrate (content by LCMSMS),[2]; day 22,2.46 mg/g powder
same,Stability in Powder Concentrate (content by LCMSMS),[2]; day 23,2.65 mg/g powder
same,Stability in Powder Concentrate (content by LCMSMS),[2]; day 24,2.60 mg/g powder
same,Stability in Powder Concentrate (content by LCMSMS),[2]; day 25,2.55 mg/g powder
same,Stability in Powder Concentrate (content by LCMSMS),[2]; day 26,2.52 mg/g powder
same,Stability in Powder Concentrate (content by LCMSMS),[2]; day 29,2.47 mg/g powder
same,Stability in Powder Concentrate (content by LCMSMS),[2]; day 30,2.66 mg/g powder
same,Stability in Powder Concentrate (content by LCMSMS),[2]; day 60,2.66 mg/g powder
same,Stability in Powder Concentrate (content by LCMSMS),[2]; day 90,2.49 mg/g powder
same,Stability in Powder Concentrate (content by LCMSMS),[2]; day 120,2.66 mg/g powder
same,Stability in Powder Concentrate (content by LCMSMS),[2]; day 150,2.61 mg/g powder
same,Stability in Powder Concentrate (content by LCMSMS),[2]; day 180,2.59 mg/g powder
same,Stability in Powder Concentrate (content by LCMSMS),[2]; day 210,2.54 mg/g powder
same,Stability in Powder Concentrate (content by LCMSMS),[2]; day 240,2.53 mg/g powder
same,Stability in Powder Concentrate (content by LCMSMS),[2]; day 270,2.47 mg/g powder
same,Stability in Powder Concentrate (content by LCMSMS),[2]; day 300,2.57 mg/g powder
same,Stability in Powder Concentrate (content by LCMSMS),[2]; day 330,2.49 mg/g powder
same,Stability in Powder Concentrate (content by LCMSMS),[2]; day 360,2.58 mg/g powder
same,Stability in Powder Concentrate (content by LCMSMS),[2]; day 390,2.48 mg/g powder
same,Stability in Powder Concentrate (content by LCMSMS),[2]; day 420,2.53 mg/g powder
same,Stability in Powder Concentrate (content by LCMSMS),[2]; day 450,2.61 mg/g powder
same,Stability in Powder Concentrate (content by LCMSMS),[2]; day 480,2.65 mg/g powder
same,Stability in Powder Concentrate (content by LCMSMS),[2]; day 510,2.64 mg/g powder
same,Stability in Powder Concentrate (content by LCMSMS),[2]; day 540,2.47 mg/g powder
same,Stability in Powder Concentrate (content by LCMSMS),[2]; day 570,2.64 mg/g powder

# Source: patent US20240415914A1, “Water Dispersible Cannabinoid Compositions” (priority 2021, published 2024)
